Results on seven molecules are retold here after ChEMBL document CHEMBL1667784, “Synthesis and structure-activity relationship of 2-thiopyrimidine-4-one analogs as antimicrobial and anticancer agents” (Eur J Med Chem, 2011).

Converted amounts (≈) assume the structure as drawn.

The IC50 is the point on the concentration scale where inhibition reaches its midpoint. Usually inhibition stands for the drop in the measured response relative to a control, in per cent.

The subject of test [1] is HL-60. The experiment in a line: Cytotoxicity against human HL60 cells after 3 days by MTT assay. The class given is functional, cell-based. The note with it: HL-60, 72 h. On the technique in general: Formazan colour is commonly taken as a measure of viable cells.
Test [2] concerns Plasmodium falciparum. Description: Antimalarial activity against chloquine-resistant Plasmodium falciparum T9.94 infected in human erythrocyte assessed as decrease in parasite growth after 48 hrs by microscopy. Type of test: functional, organism-based. To be noted: T9.94, 48 h.
For test [3], the system named is A549. Description: Cytotoxicity against human A549 cells after 3 days by MTT assay. The note with it: A549, 72 h. The class given is functional, cell-based.
Test [4] is described as follows: Cytotoxicity against human HuCCa1 cells after 3 days by MTT assay. The class given is functional, cell-based. The note with it: HuCC-A1, 72 h.
The subject of test [5] is P388. The experiment in a line: Cytotoxicity against mouse P388 cells after 3 days by MTT assay. The class given is functional, cell-based. The note with it: P388, 72 h.
Test [6] concerns Moraxella catarrhalis. Description: Antimicrobial activity against Branhamella catarrhalis assessed as growth inhibition at 128 ug/ml by agar dilution method. The class given is functional. In general terms: Agar dilution tests growth on a series of plates holding different concentrations.
In test [7] the test system is Streptococcus pyogenes. The experiment in a line: Antimicrobial activity against Streptococcus pyogenes assessed as growth inhibition at 128 ug/ml by agar dilution method. Type of test: functional.
The test system of test [8] is Neisseria mucosa. The experiment in a line: Antimicrobial activity against Neisseria mucosa assessed as growth inhibition at 128 ug/ml by agar dilution method. The class given is functional.
The subject of test [9] is T47D. The experiment in a line: Cytotoxicity against human T47D cells after 3 days by MTT assay. Type of test: functional, cell-based. The note with it: 72 h.
The subject of test [10] is H69AR. Description: Cytotoxicity against human H69AR cells after 3 days by MTT assay. Type of test: functional, cell-based. The note with it: 72 h.
Test [11] relates to HeLa. Description: Cytotoxicity against human HeLa cells after 3 days by MTT assay. The class given is functional, cell-based. To be noted: 72 h.
In test [12] the test system is HepG2. Description: Cytotoxicity against human HepG2 cells after 3 days by MTT assay. To be noted: HepG2, 72 h. The class given is functional, cell-based.
Test [13] can be described thus: Cytotoxicity against human HCC-S102 cells after 3 days by MTT assay. Type of test: functional, cell-based. The note with it: HCC-S102, 72 h.
Test [14] deals with KB. The experiment in a line: Cytotoxicity against human KB cells after 3 days by MTT assay. Type of test: functional, cell-based. To be noted: 72 h.
For test [15], the system named is MDA-MB-231. The experiment in a line: Cytotoxicity against human MDA-MB-231 cells after 3 days by MTT assay. The class given is functional, cell-based. The note with it: MDA-MB-231, 72 h.
Test [16] has as its system Moraxella catarrhalis. Description: Antimicrobial activity against Branhamella catarrhalis assessed as growth inhibition at 64 ug/ml by agar dilution method. Type of test: functional.
Test [17] deals with Candida albicans. Description: Antifungal activity against Candida albicans assessed as growth inhibition at 128 ug/ml by agar dilution method. The class given is functional.
In test [18] the test system is Edwardsiella tarda. Description: Antimicrobial activity against Edwardsiella tarda assessed as growth inhibition at 10 ug/ml by agar dilution method. Type of test: functional.
Test [19] deals with Neisseria mucosa. Description: Antimicrobial activity against Neisseria mucosa assessed as growth inhibition at 10 ug/ml by agar dilution method. The class given is functional.
In test [20] the test system is Streptococcus pyogenes. Description: Antimicrobial activity against Streptococcus pyogenes assessed as growth inhibition at 10 ug/ml by agar dilution method. The class given is functional.
For test [21], the system named is Staphylococcus epidermidis. The experiment in a line: Antimicrobial activity against Staphylococcus epidermidis ATCC 12228 assessed as growth inhibition at 10 ug/ml by agar dilution method. The class given is functional.
In test [22] the test system is Bacillus subtilis. Description: Antimicrobial activity against Bacillus subtilis ATCC 6633 assessed as growth inhibition at 10 ug/ml by agar dilution method. The class given is functional.
In test [23] the test system is Staphylococcus aureus. Description: Antimicrobial activity against Staphylococcus aureus ATCC 25923 assessed as growth inhibition at 10 ug/ml by agar dilution method. Type of test: functional.
Test [24] concerns Moraxella catarrhalis. The experiment in a line: Antimicrobial activity against Branhamella catarrhalis assessed as growth inhibition at 10 ug/ml by agar dilution method. Type of test: functional.

Consider `CCCCSc1nccc(=O)[nH]1`, for which the IC50 is above 50 µg/mL in test [1]; 10 µM in [2]; above 50 µg/mL in test [3]; above 50 µg/mL in test [4]; above 50 µg/mL in test [5]; 5 µg/mL (≈ 27.1 µM) in [9]. The IC50 is above 50 µg/mL in test [10]; above 50 µg/mL in [11]; above 50 µg/mL in [12]; above 50 µg/mL in [13]; 27 µg/mL (≈ 147 µM) in test [14]; above 50 µg/mL in [15]. In addition, the inhibition at 128 µg/mL in test [6] turned out to be 100%; in test [7], 25%; in test [8], 25%.
On to `CCC(C)Sc1nccc(=O)[nH]1` (configuration not stated), for which the IC50 in test [2] is 10 µM; in test [3] it was above 50 µg/mL; in test [4] it was above 50 µg/mL; in test [12] it was above 50 µg/mL.
Consider `O=c1ccnc(SCC2CCCCC2)[nH]1`, for which, in test [16], the inhibition at 64 µg/mL was 100%. Further, the IC50 was above 50 µg/mL in test [1]; 10 µM in test [2]; above 50 µg/mL in [3]; above 50 µg/mL in test [4]; 40.4 µg/mL (≈ 180 µM) in test [5]; above 50 µg/mL in test [9]. Also, the IC50 in test [10] is 50 µg/mL (≈ 223 µM); in test [11], above 50 µg/mL; in test [12], above 50 µg/mL; in [13], above 50 µg/mL; in test [14], above 50 µg/mL; in test [15], above 50 µg/mL. The inhibition at 128 µg/mL turned out to be 75% in test [17], 100% in test [7] and 25% in test [8].
Regarding `O=c1ccnc(SCc2ccccc2)[nH]1`, the IC50 was above 50 µg/mL in test [1]; 10 µM in test [2]; above 50 µg/mL in test [3]; above 50 µg/mL in test [4]; above 50 µg/mL in test [5]; above 50 µg/mL in [9]. For the same molecule, the half-inhibitory concentration (IC50) in test [10], in [11], in [12], in test [13], in [14] and in test [15] was above 50 µg/mL each time. For the same molecule, the inhibition at 128 µg/mL is 50% in [6] and 25% in [7].
As for `O=c1ccnc(SC23CC4CC(CC(C4)C2)C3)[nH]1`, the IC50 in test [1] is above 50 µg/mL; in test [2], 10 µM; in test [3], above 50 µg/mL; in test [4], above 50 µg/mL; in test [5], 36.9 µg/mL (≈ 141 µM); in test [9], 32 µg/mL (≈ 122 µM). Besides, the IC50 is 35 µg/mL (≈ 133 µM) in test [10]; above 50 µg/mL in test [11]; 32.5 µg/mL (≈ 124 µM) in test [12]; above 50 µg/mL in test [13]; above 50 µg/mL in test [14]; above 50 µg/mL in test [15]. Further, the inhibition at 128 µg/mL came to 75% in test [6], 25% in [7] and 25% in test [8].
Turning to `CC1(C)S[C@@H]2[C@H](NC(=O)[C@H](N)c3ccccc3)C(=O)N2[C@H]1C(=O)O` [AMPICILLIN], the inhibition at 10 µg/mL in test [18], in test [19], in test [20], in test [21], in test [22] and in test [23] was 100% in each case. Also, in test [24], the inhibition at 10 µg/mL turned out to be 100%.
Consider `COc1cc([C@@H]2c3cc4c(cc3[C@@H](O[C@@H]3O[C@@H]5CO[C@@H](C)O[C@H]5[C@H](O)[C@H]3O)[C@H]3COC(=O)[C@H]23)OCO4)cc(OC)c1O` [ETOPOSIDE], for which the IC50 came out at 0.85 µg/mL (≈ 1.44 µM) in test [1]; 0.6 µg/mL (≈ 1.02 µM) in [3]; 4 µg/mL (≈ 6.8 µM) in [4]; 0.12 µg/mL (≈ 0.204 µM) in test [5]; 0.05 µg/mL (≈ 0.085 µM) in test [9]; 30 µg/mL (≈ 51 µM) in test [10]. Further, the IC50 in test [11] was determined as 0.38 µg/mL (≈ 0.646 µM); in test [12], 21 µg/mL (≈ 35.7 µM); in test [13], 6 µg/mL (≈ 10.2 µM); in [14], 0.25 µg/mL (≈ 0.425 µM); in test [15], 0.24 µg/mL (≈ 0.408 µM).
